In experiment [1] the target is T1, L1-CAM-ankyrin interactions (Homo sapiens, UniProt Q01484).
T1 construct: expressed in transfected cells; host or cells: human kidney 293 cells
The experiment in a line: Ankyrin recruitment assay: ankyrinB co-localization with L1-CAM at the membrane of transfected 293 cells. The class given is cell-based. Particulars: 50 ng/mL EGF or 100 ng/mL NGF for 1 hour. On the procedure:
Cell culture aid transfection: Human kidney 293 cells were cultured in DMEM medium (Gibco) supplemented with penicillin, streptomycin, L-glutamine, and 10% fetal bovine serum (Hyclone). The pMyc-L1-CAM or pL1-CAM-GFP expression constructs were transfected into cultured human kidney 293 cells using Lipofectamine plus (Invitrogen) according to manufacturer instructions. Cells were cultured for 24-48 hours and then used, or cultured continuously in the presence of 0.5 μg.mL G418 (Gibco) to select for stably transfected cells lines, to generate stable pooled lines of L1-CAM-expressing cells.
In some instances, transfected 293 cells were treated with neural growth factor (NGF) or epidermal growth factor (EGF) to stimulate phosphorylation of tyrosine 1229 (Y1229) of the L1-CAM cytoplasmic domain, and thereby inhibit ankyrin binding. In these cases, cells were treated with 50 ng/mL EGF (Gibco) or 100 ng/mL NGF (Gibco) for 1 hour prior to the assay. […]
Ankyrin and L1-CAM were detected by indirect immunofluorescence in double-labeled confocal sections through cell aggregates to permit the visualization of L1 and ankyrinB at the cell membrane. Expression of myc-L1-CAM was detected using a polyclonal anti-L1-CAM rabbit antibody. […] Ankyrin was detected using a monoclonal anti-ankyrinB mouse antibody (BD PharMingen). […]
Quantification of ankyrin immunolocalization: Confocal micrographs were then used to quantify the degree of ankyrin localization to the cell membrane of myc-L1-CAM expressing cells. Images were analyzed using ImageJ (NIH) under Macintosh OSX. The method for quantifying ankyrinB localization to the membrane uses densitometry of a line scan perpendicular to and crossing a cell-cell junction. […]
The densitometry intensity profile of the scanned line was used to determine a minimum ankyrinB signal for comparison to the value of the ankyrinB signal at the point where the maximum signal in the L1-CAM channel occurs. […] Minima were determined from the regions of the line overlapping the cytoplasm of either of the two cells. […]

Another experiment relates to Cav2.2 channels. The experiment in a line: Calcium channel distribution by confocal indirect immunofluorescence in DRG neurons. The class given is cell-based, chicken. The following applies: DRG neurons; application of the transmitter.
The test system of experiment [2] is cell-surface myc-L1-CAM on ND-7 cells. As to the kind of experiment: Cytoskeleton attachment assay: resistance of 9E10 bead-myc-L1-CAM complexes to lateral displacement by laser trap. It is filed as cell-based, rat. Particulars: 2 μM cytochalasin D; ND-7 cells expressing myc-L1-CAM. The protocol: Cell culture and transfection: ND-7 cells (rat neuroblastoma/DRG hybrid cells) were cultured as described in Example 2. 24 hours prior to transfection, cultured cells were plated on coverslips coated with poly-D-lysine and laminin sealed to the bottom of 35 mm culture dishes (Mattek Corp.). Plated cells were transfected with the pL1-CAM or pMyc-L1-CAM expression constructs using Lipofectamine plus (Invitrogen) according to manufacturer's instructions. Transfected cells were cultured for 24-36 hours, and then used for live microscopy. For laser trap and video microscopy, the medium was replaced with phenol red-free serum-free L15 medium (air buffered) with 20 mM HEPES, 0.1% BSA, 0.5% ovalbumin. Cells transfected with the bicistronic expression constructs express a single mRNA encoding both the myc-L1-CAM proteins and EGFP, such that transfected cells were identified by EGFP fluorescence. […]
Video microscopy, laser tweezers, and data analysis: The 9E10-coated latex beads were then placed and held with an optical gradient laser trap on the surface of transfected cells at a distance of between 0.5 and 1 μm from the leading edge for 2 seconds. […] This wavelength was previously determined to generate the fewest heating artifacts in live cells (Svoboda and Block. Biomol Struct 1994;23:-247-285 and Choquet et al. Cell 1997;88:39-48). […]

The test system is the same in experiment [3]. The experiment in a line: L1-CAM diffusion behavior assay: movement of 9E10-coated beads bound to myc-L1-CAM (video microscopy, laser tweezers). The class given is cell-based, rat. Particulars: ND-7 cells expressing wild-type myc-L1-CAM; cytochalasin D 2 μM, nocadazole 1 μM, NGF 100 ng/mL 1 hour. An excerpt:
Video microscopy, laser tweezers, and data analysis: The 9E10-coated latex beads were then placed and held with an optical gradient laser trap on the surface of transfected cells at a distance of between 0.5 and 1 μm from the leading edge for 2 seconds. The laser trap consisted of a Titanium Sapphire (Coherent; model 890) solid state laser pumped by a 5 W frequency-doubled Neodymnium Vanadate laser (Verdi; Coherent) and tuned to 800 nm. This wavelength was previously determined to generate the fewest heating artifacts in live cells (Svoboda and Block. Biomol Struct 1994;23:-247-285 and Choquet et al. Cell 1997;88:39-48). Laser power at the output of the Titanium Sapphire laser was 40 mW, and prepared beads were placed and held on the cell surface for less than 3 sec to further reduce the possibility of heating artifacts. Laser light was introduced through the television port of the Axiovert microscope.
Video images of bead movement were collected using a newvicon camera (Dage MTI; VE-1000N) and background subtraction and contrast enhancement were carried using a Hamamatsu Argus 20 image processor. Raw data were recorded to sVHS video tape for subsequent analysis. Video recordings were subsequently digitized onto an Intel processor-based computer running the Isee imaging software (Isee Imaging) running under Red Hat Linux 7.1. Quantification of bead movement was carried out in Isee. Diffusional analysis was carried out using a custom spreadsheet in Excel (Microsoft). This spreadsheet carries out 4 operations: first, it scales the data from pixel measurements to nm using the appropriate scale factor (determined by the magnification used to observe bead movement); second, it subtracts the first point from all of the data, to set the origin at 0,0 (x,y coordinates); third, it rotates (in two dimensional space) the data around the origin so that the orientation of the cell is the same from trial to trial (here, the data was set so that the cells all face to the left); and fourth, the spreadsheet calculates the mean square displacement (MSD) data which are used to calculate diffusion coefficients and bead velocity. Individual traces were scored blind for classes of behavior. Statistical analysis of percentages of trials was carried out using chi-squared analysis or a Fisher's exact probability test.
MSD values were calculated as previously described (see Qian et al, 1991; Biophysical Journal 60 p910). For these calculations, the squared displacement (a^2+b^2; where a=xn+t−xn, b=a=yn+t−yn for any two points separated by time t) of the bead was calculated between two points in the data set. The mean of the squared displacements was calculated for each time interval t=1 to m, where m is the time interval that equals 10% of the length of the data set. The mean displacement was plotted with respect to time giving a curve with a linear or quadratic shape, depending on the behavior of the bead. Diffusion rates and velocity were calculated by fitting the curve with the equation MSD=4Dt+v^2t^2, where D is the diffusion coefficient, v is the velocity and t is time. D and v were calculated for each bead independently and presented as averages or as individual values, as described in each case.
Cell culture and transfection: ND-7 cells (rat neuroblastoma/DRG hybrid cells) were plated and transfected with pMyc-L1-CAM, pMyc-L1-CAM-YF, pMyc-L1-CAM-YH, or pMyc-L1-CAM-STOP expression constructs as described in Example 3, supra.
In some instances, ND-7 cells transfected with pMyc-L1-CAM were treated with the cytoskeletal inhibitor cytochalasin D (2 μM; Sigma) or nocadazole (1 μM; Sigma). For these experiments treatment with DMSO (0.01%) vehicle alone served as the negative control.
In some instances, ND-7 cells transfected with pMyc-L1-CAM were treated with neural growth factor (NGF) to stimulate phosphorylation of tyrosine 1229 (Y1229) of the L1-CAM cytoplasmic domain, and thereby inhibit ankyrin binding. […]

Experiment [4] has as its system secretion of Substance P from DRG neurons. The experiment in a line: Substance P secretion, single-cell immunoblot assay. The following applies: baclofen in addition to AP-YF peptide. The class given is cell-based, chick. The protocol: Secretion Assay: Secretion of substance P was analyzed using the single-cell immunoblot method adapted from Huang and Neher (Huang, L. Y., Neher, E. (1996) Neuron. 17, 135-45.). Briefly, polyvinylidene difluoride transfer membranes (Immobilon P brand from Millipore) were cut to […] and placed in a 6-well plate. Membranes were pre-wetted with methanol for 20 s, rinsed with distilled water and allowed to equilibrate in test solution for >1 hr. In parallel, DRG cells plated were incubated with media containing AP-YF or AP-Scr (1.4 μg/ml) for 1 hour. This media was removed, and replaced with 70 μl of test solution. The membranes were then placed on top of the cells, and allowed to incubate at 37° C. in a humidified CO2 incubator for 30 min. The membranes were then carefully removed from the cells and allowed to dry completely and fixed with powdered paraformaldehyde at 80° C. for 1 hr. Fixed membranes were rinsed in PBS (1 mM KH2PO4, 10 mM Na2HPO4, 137 mM NaCl, 2.7 mM KCl) containing 1% Triton X-100 (PBS-T) to remove excess paraformaldehyde, and blocked with PBS-T containing 3% fetal bovine serum (FBS) for 30 min at room temperature. The membranes were incubated with anti-substance P antibody (Santa Cruz) at 1:200 dilution in PBS-T with 1% FBS overnight in 37° C. incubator. The next day the membranes were developed with a peroxidase/diamninobenzidine (DAB) reaction using the ABC staining kit from Santa Cruz Biotechnology. Images were taken using a CCD camera, and analyzed using Photoshop and NIH image software. Data were plotted by assigning an upper and lower limit of gray values and plotting % of cells at a range within those limits. By plotting graphs as % of cells in a dynamic range, multiple experimental runs were pooled.
In general terms: In western blotting, separated proteins are transferred to a membrane and probed.

“Also recorded” adds a separate entry of the source.

T1 sequence (Q01484 whole entry): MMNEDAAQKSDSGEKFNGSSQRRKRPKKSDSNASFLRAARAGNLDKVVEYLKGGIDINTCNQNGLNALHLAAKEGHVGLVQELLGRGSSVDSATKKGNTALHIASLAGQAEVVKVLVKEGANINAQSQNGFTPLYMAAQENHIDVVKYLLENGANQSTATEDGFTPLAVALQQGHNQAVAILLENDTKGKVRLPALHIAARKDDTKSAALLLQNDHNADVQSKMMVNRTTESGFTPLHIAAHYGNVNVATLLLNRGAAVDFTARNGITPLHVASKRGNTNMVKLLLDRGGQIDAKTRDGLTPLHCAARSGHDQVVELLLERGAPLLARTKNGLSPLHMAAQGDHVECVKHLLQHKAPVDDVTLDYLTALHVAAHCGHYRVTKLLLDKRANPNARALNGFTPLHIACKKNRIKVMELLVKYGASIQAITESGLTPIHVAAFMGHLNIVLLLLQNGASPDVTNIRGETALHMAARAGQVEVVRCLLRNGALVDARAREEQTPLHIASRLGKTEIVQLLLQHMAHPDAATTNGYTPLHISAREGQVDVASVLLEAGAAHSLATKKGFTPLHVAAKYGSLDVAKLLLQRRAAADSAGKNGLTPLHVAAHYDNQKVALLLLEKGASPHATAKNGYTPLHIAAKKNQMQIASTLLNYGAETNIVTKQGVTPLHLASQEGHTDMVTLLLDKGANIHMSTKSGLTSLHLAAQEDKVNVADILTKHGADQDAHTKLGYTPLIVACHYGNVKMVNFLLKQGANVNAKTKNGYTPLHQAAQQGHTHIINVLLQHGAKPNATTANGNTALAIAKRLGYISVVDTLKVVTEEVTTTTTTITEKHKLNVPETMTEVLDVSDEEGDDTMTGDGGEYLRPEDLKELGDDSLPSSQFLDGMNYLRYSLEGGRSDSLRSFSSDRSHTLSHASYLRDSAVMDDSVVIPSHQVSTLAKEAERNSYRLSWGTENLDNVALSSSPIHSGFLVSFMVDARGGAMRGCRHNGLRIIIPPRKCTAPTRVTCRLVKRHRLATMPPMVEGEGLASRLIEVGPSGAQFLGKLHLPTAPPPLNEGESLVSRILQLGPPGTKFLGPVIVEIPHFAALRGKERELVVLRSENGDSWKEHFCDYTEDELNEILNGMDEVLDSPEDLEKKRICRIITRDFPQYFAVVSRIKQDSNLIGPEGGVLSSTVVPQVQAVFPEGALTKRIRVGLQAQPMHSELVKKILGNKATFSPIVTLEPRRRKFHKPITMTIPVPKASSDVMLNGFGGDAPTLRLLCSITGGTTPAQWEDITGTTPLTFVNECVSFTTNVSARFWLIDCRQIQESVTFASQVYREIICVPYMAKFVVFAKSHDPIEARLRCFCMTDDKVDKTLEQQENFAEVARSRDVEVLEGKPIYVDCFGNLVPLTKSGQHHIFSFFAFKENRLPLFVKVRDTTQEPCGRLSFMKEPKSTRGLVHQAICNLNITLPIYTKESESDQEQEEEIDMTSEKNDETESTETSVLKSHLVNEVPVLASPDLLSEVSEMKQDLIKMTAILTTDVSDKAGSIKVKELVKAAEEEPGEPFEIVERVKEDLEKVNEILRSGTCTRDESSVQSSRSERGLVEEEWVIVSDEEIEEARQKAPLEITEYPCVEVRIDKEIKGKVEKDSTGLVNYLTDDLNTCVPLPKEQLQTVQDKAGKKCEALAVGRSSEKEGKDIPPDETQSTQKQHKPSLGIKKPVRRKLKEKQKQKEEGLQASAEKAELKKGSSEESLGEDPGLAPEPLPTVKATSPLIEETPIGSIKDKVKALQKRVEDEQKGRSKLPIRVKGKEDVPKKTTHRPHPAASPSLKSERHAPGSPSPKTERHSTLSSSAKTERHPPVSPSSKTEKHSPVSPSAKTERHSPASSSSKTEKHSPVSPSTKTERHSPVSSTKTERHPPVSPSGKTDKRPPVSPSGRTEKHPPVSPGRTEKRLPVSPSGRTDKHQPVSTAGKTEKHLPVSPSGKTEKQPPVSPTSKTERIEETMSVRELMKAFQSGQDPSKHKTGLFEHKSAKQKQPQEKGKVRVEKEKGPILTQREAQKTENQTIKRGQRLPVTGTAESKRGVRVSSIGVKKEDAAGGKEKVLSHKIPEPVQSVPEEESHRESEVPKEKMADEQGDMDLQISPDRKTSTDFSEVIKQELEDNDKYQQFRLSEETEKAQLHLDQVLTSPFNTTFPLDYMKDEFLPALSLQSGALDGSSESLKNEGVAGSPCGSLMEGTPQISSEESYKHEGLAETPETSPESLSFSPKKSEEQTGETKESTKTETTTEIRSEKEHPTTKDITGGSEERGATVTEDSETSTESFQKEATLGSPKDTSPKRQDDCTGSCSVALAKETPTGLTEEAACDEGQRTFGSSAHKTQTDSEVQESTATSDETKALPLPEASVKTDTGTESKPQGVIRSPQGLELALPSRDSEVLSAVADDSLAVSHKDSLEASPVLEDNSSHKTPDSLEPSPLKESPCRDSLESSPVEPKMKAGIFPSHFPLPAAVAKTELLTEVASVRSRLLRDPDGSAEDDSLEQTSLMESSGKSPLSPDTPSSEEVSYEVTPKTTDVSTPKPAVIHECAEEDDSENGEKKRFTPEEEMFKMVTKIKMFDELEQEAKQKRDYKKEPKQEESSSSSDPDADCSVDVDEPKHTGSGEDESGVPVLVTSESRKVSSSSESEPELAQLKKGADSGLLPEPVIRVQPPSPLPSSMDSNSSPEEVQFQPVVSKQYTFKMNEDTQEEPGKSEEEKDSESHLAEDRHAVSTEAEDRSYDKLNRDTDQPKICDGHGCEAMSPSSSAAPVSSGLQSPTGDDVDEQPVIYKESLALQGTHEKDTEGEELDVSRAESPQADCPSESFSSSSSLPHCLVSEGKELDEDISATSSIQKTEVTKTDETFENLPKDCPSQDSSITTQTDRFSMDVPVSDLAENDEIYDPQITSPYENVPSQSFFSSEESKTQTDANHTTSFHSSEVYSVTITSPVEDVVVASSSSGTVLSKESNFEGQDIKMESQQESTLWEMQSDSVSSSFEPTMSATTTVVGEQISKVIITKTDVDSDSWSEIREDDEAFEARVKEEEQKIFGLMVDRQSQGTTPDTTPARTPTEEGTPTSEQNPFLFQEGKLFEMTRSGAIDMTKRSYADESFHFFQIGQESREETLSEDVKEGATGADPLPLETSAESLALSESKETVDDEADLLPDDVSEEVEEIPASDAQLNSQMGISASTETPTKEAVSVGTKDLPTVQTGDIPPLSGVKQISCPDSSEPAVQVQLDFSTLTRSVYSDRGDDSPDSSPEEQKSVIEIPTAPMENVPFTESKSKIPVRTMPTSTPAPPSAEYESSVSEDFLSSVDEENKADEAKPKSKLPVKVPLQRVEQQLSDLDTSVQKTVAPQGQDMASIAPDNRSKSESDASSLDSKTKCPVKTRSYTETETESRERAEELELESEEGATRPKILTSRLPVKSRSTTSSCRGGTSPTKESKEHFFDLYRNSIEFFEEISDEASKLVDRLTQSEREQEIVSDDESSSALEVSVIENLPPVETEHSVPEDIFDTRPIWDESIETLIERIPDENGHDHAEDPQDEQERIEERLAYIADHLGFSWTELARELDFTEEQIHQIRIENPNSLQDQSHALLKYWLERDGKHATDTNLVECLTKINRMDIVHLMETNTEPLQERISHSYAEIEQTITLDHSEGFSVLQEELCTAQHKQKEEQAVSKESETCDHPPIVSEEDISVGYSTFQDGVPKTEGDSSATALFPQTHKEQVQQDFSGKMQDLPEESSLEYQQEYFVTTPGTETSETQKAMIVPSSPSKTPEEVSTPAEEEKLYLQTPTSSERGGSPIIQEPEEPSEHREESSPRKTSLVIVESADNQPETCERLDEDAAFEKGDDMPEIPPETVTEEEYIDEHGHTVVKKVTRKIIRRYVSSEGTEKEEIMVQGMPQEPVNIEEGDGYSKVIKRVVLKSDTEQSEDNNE
Description for Cav2.2 channels: Antibodies: Primary antibody: rabbit anti-pan α1 binds Ca channel (1:200 dilution, [1.5 μg/ml) [Alomone Labs; Jerusalem, Israel]. Secondary antibodies: (1:200 dilution, 10 μg/ml): tetramenthylrhodamine conjugated goat anti-rabbit IgG (H+L) [Molecular Probes; Eugene, OR]
Dorsal root ganglia were dissected from 11 to 12 day old embryos, incubated for 30 min in saline containing nominal Ca 2^+ and Mg 2^+, and 0.05% collagenase (type A, Boehringer Mannheim). Ganglia were dissociated mechanically into single cells by trituration in culture medium containing Dulbecco's modified Eagle's medium supplemented with 10% horse serum, 5% chicken embryo extract, penicillin, streptomycin, glutamine, and nerve growth factor. Cells were plated at a density of ˜50,000 cells/collagen-coated 35 mm tissue culture dish and studied between 1 and 3 days in vitro.
Immunohistochemistry: Cultures grown on poly-L-lysine cover glass slips were exposed to saline or 100 mM NE (norepinephrine), fixed and permeabilized in methanol at −20° C. for 15-minutes or 20 second (for residual experiment) followed by 3×5-min washes in PHEM Buffer [60 mM PIPES, 25 mM HEPES, 10 mM EGTA, 2 mM MgCl2, pH 6.9]. Cells were alternatively fixed with 4% paraformaldehyde in PHEM buffer, pH 6.9 for 20-min, washed 3×3-min with PHEM buffer and permeabilization with 0.1% Triton X-100/PHEM buffer for 3-min. Blocking was performed using 5% BSA in PHEM Buffer for 1-h at 4 C. Following overnight incubation with primary antibody in 1% BSA and 1% normal goat sera in PHEM Buffer at 4 C. After washes with PHEM Buffer, cover slips were incubated with fluorophore-conjugated secondary antibodies in 1% BSA PHEM Buffer for 1.5 hours at room temperature in the dark. […]
Images of fixed cells were obtained with a pinhole setting of 0.95 using a UV 100× 1.4NA oil Leica objective lens and an optical zoom between 1.4 and 2× at slow acquisition speed with 4× frame averaging accumulation. The number of sections was calculated by the Leica TCS software based on acquisition of sections at 240 nm intervals in the Z-plane. […]

As to EGF: epidermal growth factor (Gibco), the “ankyrin B colocalization with L1-CAM at the cell membrane” value in experiment [1] is listed as “significant reduction; also recorded: inhibited ankyrin membrane localization”.
Regarding `NC[C@H](O)c1ccc(O)c(O)c1` (racemic) [norepinephrine, Norepinephrine], in the experiment on Cav2.2 channels, the “punctate distribution of Cav2.2 channels in the membrane” value is recorded as “rapidly (within 2s) reduced”.
Consider `C=C1[C@@H](C)[C@H]2[C@H](Cc3ccccc3)NC(=O)[C@]23[C@H](OC(C)=O)/C=C/[C@@](C)(O)C(=O)[C@@H](C)C/C=C/[C@H]3[C@@H]1O` [cytochalasin D], for which, in experiment [2], the “bead rigidity on the cell surface (resistance to lateral displacement)” value is “entirely abolished”. For the same molecule, in experiment [3], the “% of trials diffusing” value is reported as 83.3%, the “% of trials retrograde” value is given as 0% and the “% of trials stationary” value worked out at 16.7%.
With `NCC(CC(=O)O)c1ccc(Cl)cc1` (racemic) [Baclofen, 4-Amino-3-[4-chlorophenyl] butanoic acid], the “DRG neurons secreting low levels of Substance P” value in experiment [4] was determined as 75%.
With `COC(=O)Nc1nc2cc(C(=O)c3cccs3)ccc2[nH]1` [nocadazole], in experiment [3], the “% of trials diffusing” value worked out at 25%, the “% of trials retrograde” value is 43.75% and the “% of trials stationary” value is 31.25%.

These data come from patent US7737250B2, “Peptides for treating axonal damage, inhibition of neurotransmitter release and pain transmission, and blocking calcium influx in neurons” (Mount Sinai School of Medicine of New York University, priority 2003, dated 2010).
